Entries after “also recorded” stand apart in the source; their conditions may differ.
Legend:
[1] = tested on: human Eg5 mRNA; experiment: peptide-mediated transfection of siRNA targeting Eg5 (mRNA level, CytoTox-Glo apoptosis); assay type: cell-based
Method: The siRNA sequence specificity of NRTN was investigated via analysis of the peptide's ability to transfect a siRNA duplex targeting human Eg5 mRNA. The Eg5 knockdown dependent induction of apoptosis was determined by performing a CytoTox-Glo cytotoxicity assay (Promega Inc.). The mRNA values obtained at 1 μM were set to 100% to show dose dependent effects. Induction of apoptosis is expressed as percent of medium control. Aha1 siRNA is shown as black filled squares; luciferase siRNA is shown as non-filled circles.
(§1) Then, the cells were treated with a luminogenic peptide substrate in order to measure dead-cell protease activity, which is released from cells that have lost membrane integrity. […] The luminescence of this assay therefore represents dead cells. The 96 well plates were then analyzed in an InfiniteF200 luminescence reader.
An effective reduction of cellular Eg5 mRNA levels was found at concentrations of <10 μM. […] It is known that effective depletion of Eg5 mRNA causes mitotic arrest resulting in the onset of apoptosis (Blangy, A. et al. (1995), supra). […] Transfections with control siRNA under identical conditions were not cytotoxic either, thus confirming that the apoptotic phenotype was caused by Eg5 mRNA depletion.

[2] = tested on: MCF-7 human breast cancer cells; experiment: cell viability/apoptosis after 24 h exposure to pro-apoptotic peptides and CPP fusions; assay type: cell-based; settings: MCF-7 cells, various concentrations
Method: (§2) MCF-7 human breast cancer cells were incubated for 24 h in the presence of various concentrations of NRTN (squares), Nur (circles), and NurNRTN (triangles) peptides. The respective amino acid sequences are given in the bottom panel. The experimental approach for assessing cell viability (and thus induction of apoptosis) was the same as in FIG. 3.
as §2, with “4E-BP1 (circles), TAT4E-BP1” for “NRTN”, “(squares),” for “(squares), Nur (circles),”, “NRTN4E-BP1” for “NurNRTN”, “peptides (top panel). […]” for “peptides.”
Luminescence was analyzed in an InfiniteF200 luminescence reader.
as §1
Despite its proven ability to convert BCL-2 into a pro-apoptotic molecule, addition of the latter peptide (i.e. “Nor/Nur”; SEQ ID NO: 72) to cancer cells, even in high concentrations, is not sufficient to induce apoptosis, as the cellular target protein is located in the cytoplasm, but the peptide per se cannot effectively penetrate through the cell membrane to reach the target. In brief, MCF-7 breast cancer cells were incubated in the presence of this peptide for 24 h.
(§3) Subsequently, it was evaluated whether the NurNRTN fusion peptide is capable of penetrating cellular membranes and thereby induces pro-apoptotic activity within cells. MCF-7 human breast cancer cells were used as a model. The experimental approach was as described above (cf. Example 1). […] This effect was dose dependent: cytotoxicity increased with increasing concentrations of peptide.
as §3, with “NRTN4E-BP1” for “NurNRTN”

[3] = tested on: human Aha1 mRNA; experiment: siRNA transfection screening (siAha1 vs siGL3 control, bDNA assay of Aha1/GAPDH mRNA); assay type: cell-based
Method: For the quantification of cellular mRNA levels bDNA (branched DNA) assays were performed which enable the detection of individual mRNA levels. To this end, a defined number of the cells to be analyzed was seeded into 96-well plates and allowed to attach over night. On the next day, the cells were transfected with siRNA.
After further 24 hours, the mRNA species were quantified using the QuantiGene Plex 2.0 assay kit according to the manufacturers instructions (Affymetrix Inc., Santa Clara, Calif., USA). In brief, cell lysates were transferred to a capture plate in the presence of a gene-specific probe set and incubated at 53° C. over night. After washing, the wells were sequentially incubated at 53° C. with an amplifier agent and an alkaline phosphatase (AP)-linked label probe with a washing step in between. Subsequently, the luminescent AP substrate dioxitane was added and incubated for 30 min at 53° C. Luminescence was assayed using an InfiniteF200 luminescence reader (Tecan Austria GmbH, Groding, Austria).
In order to analyze the potential CPPs for their ability to transfect siRNA into mammalian cells an increasing peptide concentration (from 1 μM to 20 μM) was employed along with a constant siRNA concentration (100 nM). This range of peptide concentrations was used as it had been shown that positively charged peptides such as TAT are internalized into cells in ranges up to 10 μM and remain in intracellular membrane compartments without significant egress into the cytosol (Duchardt, F. et al. (2007) Traffic 8, 848-866). […] A concentration of 10 nM siRNA is in the saturation range as determined in control experiments using the DharmaFECT transfection reagent (Dharmacon, Inc., Lafayette, Colo., USA; data not shown).
The siRNA oligonucleotides employed were directed against human Aha1 mRNA (Panaretou, B. et al. (2002) Mol. Cell 10, 1307-1318) or against luciferase mRNA as a control.
Complexes of siRNA and the respective peptides were formed in OptiMEM medium and incubated for 15 minutes at room temperature. The cells were incubated in the presence of the complexes for three hours in OptiMEM. After washing, the cells were incubated for further 21 or 45 hours in normal growth medium. Thereafter, the levels of Aha1 mRNA and a reference mRNA (i.e. GAPDH mRNA) were measured by means of a bDNA assay. These assays were performed with cells that were transfected with siAHA1 and with a control siRNA (siGL3, luciferase), respectively.
As a measure for specific RNAi, the reduction of Aha1 mRNA levels relative to GAPDH mRNA levels was compared in siAHA1-transfected cells and siGL3-transfected cells. Specific siRNA mediated transfection causes a reduction in Aha1/GAPDH mRNA values in siAhA1-compared to siGL3-transfected cells. FIG. 3 depicts the screening readout of these assays: the Aha1/GAPDH mRNA values of non-transfected control cells were set to 100% (for each assay), and the Aha1/GAPDH mRNA values of siAha1- or siGL3-transfected cells were expressed relative to that. For this normalized data set, the differences between the respective Aha1/GAPDH mRNA levels of siAha1- and siGL3-transfected cells were determined. Specific peptides caused a significant reduction in siAha1 transfection without reducing siGL3 transfections, which results in positive difference values. The more pronounced these values are, the more specific RNAi is observed (cf. FIG. 3).

[4] = tested on: MCF7 cells; experiment: growth inhibition/toxicity (CellTiter-Glo viability, GAPDH mRNA levels)
Method: MCF7 cells were seeded at a density of 15.000 cells per well in 96 well plates. The cells were incubated for 24 hours at 37° C., 5% CO2 and 85% humidity in RPMI 1640 medium supplemented with 10% FCS (fetal calf serum) and L-glutamine. For functional assays, the cells were washed in OptiMEM medium and RPMI 1640 was replaced with OptiMEM (all reagents were purchased from Invitrogen Corporation, Carlsbad, Calif., USA). Complexes of siRNAs and peptides were formed by incubation of 100 nM siRNA with the indicated peptide concentrations in OptiMEM for 30 minutes at room temperature. The complexes were added to the cells and incubated for 3 hours. Subsequently, OptiMEM was replaced with normal RPMI 1640 growth medium. The cells were incubated for further 21 hours for generating bDNA lysates, and for further 45 hours for performing CellTiter-Glo or CytoTox-Glo assays (cf. below).
In order to measure the number of living cells the CellTiter-Glo Luminescent Cell Viability Assay (Promega Corporation, Madison, Wis., USA) was used according to the protocol of the manufacturer. The cells were incubated for 48 hours in the presence of peptides and siRNAs. Subsequently, the cells are lysed, and a luminescent signal proportional to the amount of ATP present is generated which, in turn, is proportional to the number of living cells present. Luminescence was analyzed in an InfiniteF200 luminescence reader.
Based on this observation, GAPDH mRNA levels were used as a general readout for toxicity: an average measurement of 100% GAPDH mRNA relative to the medium control was considered as non-toxic, values between 99% and 70% as moderate toxic, and values of less than 70% as toxic (cf. FIG. 3).
Similarly, peptides resulting in GAPDH mRNA values >70% were classified as “nontoxic”, whereas peptides that caused a reduction of GAPDH mRNA to lesser values were termed “toxic”.

## GAAEAAARVYDLGLRRLRQRRRLRRERVRA (NRTN peptide sequence; listed as Homo sapiens)
[1]; CytoTox-Glo
  apoptotic phenotype upon siEg5 transfection: an apoptotic phenotype was observed
[1]; siRNA targeting Eg5
  peptide concentration giving effective reduction of cellular Eg5 mRNA levels: < 10 µM
[2]
  cell viability / induction of apoptosis: did not affect cell viability or lead to induction of apoptosis
[3]; MCF7 cells, 100 nM siRNA, peptide 1 μM to 20 μM
  siRNA transfection activity (specific Aha1 mRNA reduction relative to GAPDH mRNA): even more effective reduction of Aha1 mRNA levels
[3]; NRTN: at lower non-toxic concentrations
  transfection efficacy compared with TAT / control peptides: higher than that of all (positive) control peptides analyzed; also recorded: efficacy even higher than TAT
[4]; <10 μM
  interference with cell viability at doses effective for Eg5 knockdown: does not interfere with cell viability
[4]; MCF7 cells, peptide 1 μM to 20 μM
  cell viability / growth inhibition / toxicity (CellTiter-Glo, GAPDH mRNA levels): only minor effects on cell viability
